Key:
[1] = test system: catalase-2 mutant A. thaliana plantlets (cat2-2); experiment: agar assay: rescue of cell death of catalase-2 mutants under photorespiratory conditions (Restricted Gas exchange Constant Light; RGCL); type: in vivo, Arabidopsis thaliana; details: grown under photorespiratory conditions
Procedure: FIG. 2: effect of 5 μM of compound 4 on the rescue of cell death of the catalase-2 mutant A. thaliana plantlets when grown under photorespiratory conditions. Photorespiratory conditions are, for example, as herein used, restricted-gas-exchange-constant light conditions. […] Photorespiration (Rp) is a major source of detrimental effects and yield losses in crop plants. Catalase is one of the crucial proteins in the Rp process since it provides the dissipation sink of photosynthetic excitation overload in the role of Rp as a photo-protective mechanism. Secondly, and as part of the same process, catalase provides effective defense against excessive hydrogen peroxide levels, without requiring additional energy from other sources. Catalase knock-out mutant plants thus provide an excellent tool to study the process of Rp (see Vandenabeele S et al., (2003) PNAS 100, 26, 16113-16118). In the disclosure, we developed a high-throughput screening assay by using a catalase-2 deficient plant. […] Fv/Fm is presented as a ratio of variable fluorescence (Fv) over the maximum fluorescence value (Fm). […] On a regular basis Fv/Fm was monitored for all wells, using a Walz Maxi PAM imager. Several days after transfer to constant light the individual wells were visually scored for cell death. […] Three persons scored independently, and only a consensus of ⅔ scores were maintained as positive hits. […]

[2] = test system: Oilseed rape of the variety Alessio; experiment: salt tolerance in oilseed rape (vitality index after salt water irrigation); type: in vivo; details: 24 h later 50 ml salt water per pot, 80 grams of NaCl per liter, assessed 3 and 4 days after treatment
Procedure: Oilseed rape of the variety Alessio was sown in small pots (8×8×8 cm) filled with universal peat at 4 grains per pot. The plants were grown in a non-heated greenhouse until BBCH 13 (3 unfolded leaves). At that stage the number of plants per pot was reduced to 2, and the plants were either or not treated with dichloroprop-P (Duplosan DP, 600 g/l dichloroprop-P, Nufarm UK Limited), using a Birchmeier hand sprayer with an operating pressure of 2 bar. Per object 8 pots were treated. The 8 pots were put in line, 5 cm apart, and were sprayed overhead within 6 seconds. Two different concentrations of dichloroprop-P were applied: 4 mg/l or 8 mg/l. 24 hours after treatment, the plants were irrigated with salt water, giving 50 ml of water per pot at a concentration of 80 grams of NaCl per liter of water. The following days the plants were assessed visually for salt damage. Plants were divided into 3 categories: high vitality (=2), only moderate vitality (=1) or low vitality (=0), based on which a vitality index was calculated, ranging from 0 (low vitality) to 100 (high vitality).

[3] = test system: Maize of the variety Maibi; experiment: frost tolerance in maize (crop condition index after frost regime); type: in vivo; details: 24 h later 6 hours at −2° C., assessed 2 days after treatment
Procedure: Maize of the variety Maibi was sown in small pots (8×8×8 cm) filled with universal peat at 4 grains per pot. The plants were grown in a non-heated greenhouse until BBCH 13 (3 unfolded leaves). At that stage plants were either or not treated with dichloroprop-P (Duplosan DP, 600 g/l dichloroprop-P, Nufarm UK Limited), using a Birchmeier hand sprayer with an operating pressure of 2 bar. Per object 10 pots were treated. The 10 pots were put in line, 5 cm apart, and were sprayed overhead within 6 seconds. Four different concentrations of dichloroprop-P were applied: 4 mg/l, 8 mg/1, 12 mg/l or 16 mg/l. 24 hours after treatment, the plants were transferred in to a refrigerator that was set at −2° C. for 6 hours. Afterwards the plants were transferred back to the greenhouse. The day after the cold treatment (so 2 days after application of dichloroprop-P) the plants were assessed visually for frost damage. Plants were divided into 3 categories: Good crop condition (=2), only moderate crop condition (=1) or bad crop condition (=0), based on which a crop condition index was calculated, ranging from 0 (bad crop condition) to 100 (good crop condition).

Cc1ccnc(NC(=O)COc2ccc(Cl)cc2Cl)c1 [variant 2]
rescue of cell death of the cat2-2 mutant ([1]; 50 nM): rescues cell death

CC(Oc1ccc(Cl)cc1Cl)C(=O)O (stereo not shown) [dichloroprop-P]
vitality in salt stress conditions (salt stress tolerance) ([2]; spray 4 mg/l at BBCH 13): comparable increase in salt stress tolerance
vitality in salt stress conditions (salt stress tolerance) ([2]; spray 8 mg/l at BBCH 13): comparable increase in salt stress tolerance
crop condition after frost (frost tolerance) ([3]; spray 4 mg/l at BBCH 13): better crop condition after frost
crop condition after frost (frost tolerance) ([3]; spray 12 mg/l at BBCH 13): negative effect on frost tolerance
crop condition after frost (frost tolerance) ([3]; spray 16 mg/l at BBCH 13): negative effect on frost tolerance

CCCCC(CC)COC(=O)C(C)Oc1ccc(Cl)cc1Cl (stereo not shown) [variant 1]
rescue of cell death of the cat2-2 mutant ([1]; 100 nM): rescues cell death
